Experimental data: patent publication US9353152B2, “Induction of the mitochondrial permeability transition” (NewSouth Innovations Pty Limited, priority 2002, dated 2016)
Where “and” joins values, the source holds several entries; their conditions need not be identical. Identical values can stand only once. Like-named read-outs stand apart in the source and are kept apart here.

Columns and labels:
CAM angiogenesis = experiment: Chick chorioallantoic membrane (CAM) angiogenesis assay; type: in vivo; details: 5, 10 or 50 μg per pellet, 48 h
Experimental: Fertilised 3 day-old white Leghorn eggs (Spafas, Norwich, Conn.) were cracked, the embryos with intact yolks placed in 20×100 mm petri dishes and incubated for 3 days at 37° C. and 3% CO2 (Folkman, 1985). Methylcellulose (Fisher Scientific, Fair Lawn, N.J.) discs containing 5, 10 or 50 μg of either GSAA or GSAO were then applied to the CAM of individual embryos and incubated for 48 h at 37° C. and 3% CO2. The discs were made by desiccation of GSAA or GSAO in 10 μl of 0.45% methycellulose on teflon rods. The CAMs were observed using a stereomicroscope and scored for no obvious affect or inhibition of CAM angiogenesis as defined by avascular zones. On some occasions CAM blood vessels were injected with India ink and photographed.

HT1080 tumours = experiment: Primary tumour growth assay; type: in vivo; details: 10 mg/kg/day s.c., SCID mice
Experimental: (§1) Female 7 to 9 week old SCID or C57Bl6/J mice were used (Massachusetts General Hospital, Boston, Mass.). Mice were held in groups of 3 to 5 at a 12 hour day and night cycle and were given animal chow and water ad libidum. SCID or C57Bl6/J mice were anaesthetised by inhalation of isoflurane, the dorsal skin shaved and cleaned with ethanol, and a suspension of 2.5×10^6 BxPC-3, HT1080 or LLC cells in 0.2 mL of PBS, or saline for LLC cells, was injected S.C. in the proximal midline. LLC cells were prepared according to O'Reilly et al. (1997). Tumour volume was calculated using the relationship, a·b^2·0.52, where a is the longest and b the shortest diameter.

LLC tumours = experiment: Primary tumour growth assay; type: in vivo; details: 10 mg/kg/day s.c., C57Bl6/J mice
Experimental: as §1

MPTP [1] = biological target: T1, MPTP (Rattus norvegicus, UniProt Q09073); experiment: Mitochondria swelling assay (MPT induction, decrease in light scattering at 520 nm); type: biochemical
T1 construct: Mitochondria were isolated from the livers of ˜250 g male Wistar rats; from tissue; host or cells: rat liver mitochondria (male Wistar rats)
T1 sequence (Q09073 2-298 limits assumed): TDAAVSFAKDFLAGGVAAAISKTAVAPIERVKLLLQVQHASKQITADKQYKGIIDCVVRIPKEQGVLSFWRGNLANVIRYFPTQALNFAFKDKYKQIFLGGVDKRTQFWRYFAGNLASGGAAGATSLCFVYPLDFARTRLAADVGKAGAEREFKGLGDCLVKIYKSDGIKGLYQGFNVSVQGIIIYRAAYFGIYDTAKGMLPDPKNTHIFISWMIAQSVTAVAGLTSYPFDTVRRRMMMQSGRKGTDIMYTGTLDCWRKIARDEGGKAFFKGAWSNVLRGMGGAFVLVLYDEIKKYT

[2] = system: LLC (murine lung carcinoma); experiment: Proliferation arrest and loss of viability (cell number and propidium iodide, flow cytometry); type: cell-based; details: 48 h
Experimental: (§2) To distinguish between the anti-proliferative and pro-apoptotic effects of GSAO, treated cells were stained with propidium iodide (PI) to detect late-apoptotic or dead cells. The total number of cells and the proportion of cells that were PI-positive following 48 h treatment with GSAO were measured by flow cytometry.

[3] = system: HT1080 (human fibrosarcoma); experiment: as above; type: cell-based; details: HT1080, 48 h
Experimental: as §2

[4] = system: HL60 (human erythroid leukaemia); experiment: as above; type: cell-based; details: HL60, 48 h
Experimental: as §2

[5] = system: BxPC-3 (human pancreatic carcinoma); experiment: as above; type: cell-based; details: for IC50: BxPC-3, 48 h
Experimental: as §2

[6] = system: HDMVE (human dermal endothelial); experiment: as above; type: cell-based; details: 48 h
Experimental: as §2

[7] = system: BAE (bovine aortic endothelial); experiment: as above; type: cell-based; details: 48 h
Experimental: as §2

[8] = system: A549 (human lung carcinoma); experiment: as above; type: cell-based; details: A549, 48 h
Experimental: as §2

MPTP [9] = biological target: T1, MPTP; type: biochemical
BAE cells = details: read-out: IC50 (μM)*
[10] = Titration of arsenoxide compounds with DTT; type: physicochemical; details: GSAO versus Compound 1
ANT Cys^160 = biological target: T2, ANT Cys^160 (Rattus norvegicus, UniProt Q09073); experiment: Labelling of ANT with eosin-5-maleimide (competition); type: binding; details: 200 nmol GSAO per mg of protein, sub-mitochondrial particles
T2 construct: Rat liver sub-mitochondrial particles were prepared by sonication and differential centrifugation; from tissue; host or cells: rat liver sub-mitochondrial particles
T2 sequence (Q09073 1-298): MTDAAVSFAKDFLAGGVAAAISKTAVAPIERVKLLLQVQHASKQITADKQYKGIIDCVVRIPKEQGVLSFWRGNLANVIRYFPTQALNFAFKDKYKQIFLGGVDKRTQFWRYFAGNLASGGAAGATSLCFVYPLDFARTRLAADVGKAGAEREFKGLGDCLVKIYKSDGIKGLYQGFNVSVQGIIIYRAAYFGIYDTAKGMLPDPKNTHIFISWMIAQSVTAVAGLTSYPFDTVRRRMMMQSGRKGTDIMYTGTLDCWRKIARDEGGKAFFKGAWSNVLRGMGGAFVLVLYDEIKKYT
Experimental: Rat liver sub-mitochondrial particles were prepared by sonication and differential centrifugation according to Majima et al. (1998). The particles were suspended at 20 mg of protein per mL in 10 mM Tris, pH 7.2 buffer containing 250 mM sucrose and 0.2 mM EDTA and incubated without or with 200 nmol GSAO per mg of protein for 10 min at 25° C., followed by 20 nmol of eosin-5-maleimide per mg of protein for 1 min at 0° C. in the dark. The labelling was terminated by addition of 10 μmol of dithiothreitol per mg of protein. The proteins were resolved on 4-20% gradient iGels and the eosin-labelled ANT was visualised by UV transillumination using a Fluor-S™ Multilmager (Bio-Rad, Hercules, Calif.).

[11] = read-out: Loss of Viability IC50
[12] = read-out: Proliferation Arrest IC50

Which “inhibition of CAM angiogenesis (avascular zones)” value (CAM angiogenesis) does the source give for `N[C@@H](CCC(=O)N[C@@H](CSCC(=O)Nc1ccc([As]=O)cc1)C(=O)NCC(=O)O)C(=O)O` (some centres unmarked) [GSAO, 4-(N—(S-glutathionylacetyl)amino)-phenylarsenoxide] here?
The value was “inhibited CAM angiogenesis in a concentration-dependent manner”.

What about the “inhibition of the rate of tumour growth” value (HT1080 tumours) of the same compound?
Its value is roughly 70%.

And the “inhibition of the rate of tumour growth” value (LLC tumours)?
The value was roughly 50%.

What about the “half-time for GSAO mediated swelling of the mitochondria” value (MPTP [1]; 50-200 μM GSAO, increasing Ca^2+ concentration) of the same compound?
Its value is “reduced by added Ca^2+”.

And the “swelling of isolated rat liver mitochondria” value (MPTP [1]; GSAO 25-200 μM, GSAA, GSCA 100 μM, 60 min)?
Its value is “triggered swelling”.

And the IC50 [2]?
Its IC50 is 140 µM.

What about the IC50 [3, 11] of the same compound?
The IC50 was 130 µM.

And the IC50 [3, 12]?
Its IC50 is 95 µM.

What about the IC50 [4, 11] of the same compound?
The IC50 was 140 µM.

What about the IC50 [4, 12] of the same compound?
The IC50 was 50 µM.

What about the IC50 [5, 11] of the same compound?
The IC50 was greater than 320 µM.

And the IC50 [5, 12]?
Its IC50 is greater than 320 µM.

And the “concentration without effect on BxPC-3 proliferation relative to endothelial proliferation arrest” value ([5]; Table 1)?
Its value is greater than 30 fold.

What about the IC50 [6, 11] of the same compound?
Its IC50 is ~35 µM and 35 µM.

What about the IC50 [6, 12] of the same compound?
Its IC50 is ~15 µM and 15 µM.

And the IC50 [7, 11]?
The IC50 was ~75 µM and 75 µM.

What about the IC50 [7, 12] of the same compound?
Its IC50 is ~10 µM and 10 µM.

What about the IC50 [8, 11] of the same compound?
Its IC50 is 150 µM.

What about the IC50 [8, 12] of the same compound?
The IC50 was 80 µM.

What about the “MPTP Swelling Rate Increase/GSAO* Mean” value (MPTP [9]) of the same compound?
The value was 1.

And the IC50 (BAE cells)?
The IC50 was 8.28 µM.

And the “arsenical reactivity (titration with DTT)” value [10]?
Its value is “no significant difference”.

And the “competition for eosine-maleimide alkylation of ANT Cys^160” value (ANT Cys^160)?
The value was “competed”.
